The test system of assay [1] is TGF-β/Smad pathway in annulus fibrosus cells. In words: Immunoprotein western-blotting of annulus fibrosus cells (activation of the TGF-β/Smad pathway). Type of assay: cell-based. Here is the method:
Activation of the TGF-β/Smad pathway in annulus fibrosus cells by bleomycin:
Method for immunoprotein western-blotting of annulus fibrosus cells:
Annulus fibrosus cells (provided by CAS Cell Bank) were cultured in a six-well plate to which high-sugar DMEM medium+10% fetal bovine serum was added, the plate was placed in a 5% CO2 incubator at 37° C., and 5, 10 μg/ml of bleomycin and/or the TGFβR1 inhibitor LY364947 was added when the cell confluence was 70%-80% to co-culture for 30 min or 24 h. Total cellular protein was extracted from cultured annulus fibrosus cells (Medical Center of Rush University) by using RIPA lysis buffer (Roche, Basel, Switzerland) containing phosphatase and protease inhibitors. Equal amounts (20-30 μg) of extracted proteins were obtained by using 10% or 12.5% SDSPAGE gel, and proteins were separated by electroblotting with 0.22 μm PVDF membrane (Merck Millipore). The PVDF membrane was blocked with 5% BSA-PBS for 1 h at room temperature and then incubated with primary antibody (diluted at a ratio of 1:1000 in 5% BSA-PBS) overnight (at least 16 h) at 4° C. Anti-SMAD2 antibody (Ser308, D4364; rabbit monoclonal antibody), anti-phosphorylated SMAD2 antibody (Ser465/467, 138D4; rabbit monoclonal antibody), anti-SMAD3 antibody (C67H9; rabbit monoclonal antibody), anti-phosphorylated SMAD3 antibody (Ser423/425, C25A9; rabbit monoclonal antibody), anti-SMAD2/3 antibody (D7G7; rabbit monoclonal antibody), anti-phospho SMAD2/3 antibody (Ser465/467; Ser423/425; rabbit monoclonal antibody), anti-SMAD4 antibody (D3M6U; rabbit monoclonal antibody), and […] antibody (D6A8; rabbit monoclonal antibody) were purchased from Cell Signaling Technology (Danvers, Massachusetts, USA). […] The membrane was extensively rinsed in TBST again and protein immunobands were detected by using the LI-COR Odyssey Fluorescence Imaging System (LICOR Biosciences, Lincoln, NE, USA). […]

Assay [2] has as its system punctured intervertebral disc (spinal degeneration). In words: Digital X-ray and MRI imaging of punctured rat tail discs after disc local injection of bleomycin. It is filed as in vivo, Sprague-Dawley rats. As to conditions: 5 μl of 10 and 5 μg/ml bleomycin per disc, injected two weeks after puncture, four weeks recovery.
Method: Six 8-week-old male Sprague-Dawley rats (Shanghai Laboratory, Shanghai Animal Research Center, China) were raised at 26-28° C. and 50-65% humidity for 12 h day and night. […] Before surgery, the rats were anesthetized by intraperitoneal injection of sodium pentobarbital (5 mg/100 g of body weight). The tails of rats were disinfected with iodinated polyvinyl pyrrolidone, and then a longitudinal skin incision was made to the tail near the ventral part to expose 6-10 parts of the intervertebral disc of the tail bone. The Co6/7 disc was used as a sham control, and Co7/8, Co8/9, and Co9/10 were used as experimental groups. A sterile 20-gauge needle was used to perpendicularly puncture the intervertebral disc through the skin, so as to ensure the needle passed through the annulus fibrosus and stuck into the nucleus pulposus located at the center of the intervertebral disc. The incision was then sutured and the rats were allowed to recover for two weeks. The rats (n=6) were re-subjected to surgery to expose Co8/9 and Co9/10 discs, and 5 μl of 10 and 5 μg/ml bleomycin were injected into each disc. The surgical incision was then sutured and the rats were allowed to recover for four weeks. At the end of the experiment, all rats were executed, the tails were collected, the soft tissues were cleared, and the spines were fixed with 4% PFA. Co6/7 was the control group (sham group), Co7/8 was the Puncture group, and Co8/9 and Co9/10 were the puncture+bleomycin administration groups (Bleomycin group).
Digital X-ray imaging of the punctured disc samples (Puncture and Bleomycin groups) prepared in Embodiment 2 was performed in the anterior-posterior axis with a detector that provides up to 5× geometric magnification (Faxitron VersaVision; Faxitron Bioptics LLC, Tucson, AZ. USA). MRI imaging of the same punctured disc samples was performed on a Siemens MagnetomPrisma E11 (Siemens Healthineers, Erlangen, Germany) with the following parameters: TR 3000 ms, TE 80 ms, thickness 1.1 mm, interval 0.22 mm, field of view 160×65 mm, voxel size 0.25×0.1 mm.
Assay [3] shares this test system. The assay can be described thus: Safranin O-fast green staining, Sirius red staining and immunofluorescence of disc paraffin sections. It is filed as in vivo, Sprague-Dawley rats. The procedure: Fixed disc tissue specimens (sham group, Puncture group, and Bleomycin group) were embedded in paraffin blocks, followed by tissue sectioning (with a thickness of 5 μm). For histological evaluation, paraffin sections were stained with saffron O-solid green and Sirius red according to standard laboratory protocols. For immunofluorescence detection, tissue sections were de-paraffined in graded xylene, rehydrated in graded alcohol solution, and then incubated in antigen retrieval buffer (Roche) at 37° C. for 30 min. After cooling to room temperature, the slides were immersed in PBS (pH 7.4) and washed 3 times for 5 min each. Autofluorescence quencher was added to the sections, and 5 min later, blocking buffer was added to block the sections for 30 min at room temperature. The sections were then incubated with primary antibodies overnight in a wet chamber at 4° C. Primary antibodies were diluted at a ratio of 1:100, and included anti-Col1a1, anti-FSP1, anti-TGFβ, and anti-TGFβR1 (all purchased from Cell Signaling Technology). The next day, sections were washed with PBS, conjugated to secondary antibody (anti-rabbit, 1:500; Cell Signaling Technology) through Alexa-fluor594, and then incubated for 50 min in the dark at room temperature. The sections were washed with PBS and then incubated with DAPI solution (Sigma Aldrich, St. Louis, MO, USA) for 10 minutes in the dark to stain the nucleus. The sections were subjected to a final PBS wash, air-dried, and then sealed with an anti-fluorescence quenching flake. Digital fluorescence images were taken by using a Leica DM4000 B epifluorescence microscope (Leica Microsystems).

For assay [4] the test system is unchanged. In words: Atomic force analysis of punctured disc paraffin sections. As to conditions: Puncture+Bleomycin; FIG. 7 and 8. Type of assay: in vivo, Sprague-Dawley rats. The procedure: Atomic force analysis was performed by first extracting and dissecting the punctured vertebrae. Paraffin sections were made and then nanoindented (R<10 nm, nominal N/m, tips: Si/Tipless/Top, cantilevered Si/Al/Top; Park Systems) by using a Park NX20 (Park Systems, Korea) equipped with a microsphere colloidal tip. For undulating surfaces with large areas, a scan rate of 13 hz was used. Large scanning rates can reduce drift, but are generally only used to scan small planes. Indentation was performed by using a scanning Asyst air probe, where a z-piezo displacement rate was 10 μm/s, a maximum load was ˜120 nn, a curvature radius was 5 nm, and a force constant was 0.4 N/m.

Setting [5] is: 10 and 5 μg/ml of bleomycin, compared with the puncture group and the control group, FIG. 4.
Where [6] appears, read: Puncture+Bleomycin vs Puncture group, FIG. 3.

Regarding bleomycin, the “p-smad2 and p-smad3 in annulus fibrosus cells” value in assay [1] (5, 10 μg/ml bleomycin, co-culture 30 min or 24 h, western blot, FIG. 1A and 1B) is on record as “activated”. Moreover, the “expression of end-protein products Col1a1 and FSP1” value in assay [1] (5, 10 μg/ml bleomycin, co-culture 30 min or 24 h, western blot, FIG. 1C) is given as “increased”. Besides, the “fibrogenic-associated proteins TGFβ, FSP1, and Col1a1 (immunoprotein western-blot)” value in assay [1] (legend of FIG. 1C) was “highly expressed”. In assay [2], the “signal of the intervertebral disc (MRI)” value was “difficult to be preserved”; the “stability of the disc (X-ray and MRI)” value is “not significantly affected”. Further, in assay [2] (vs Puncture group), the “intervertebral space height (X-ray and MRI)” value is reported as “effectively maintained”. In assay [3] (setting [5]), the “staining percentage of annulus fibrous (green)” value is “significantly increased”, the “staining percentage of type I collagen (yellow)” value is reported as “significantly increased” and the “staining percentage of type III collagen (green)” value is “significantly increased”. Moreover, the “type I and type III collagens secreted (immunofluorescence)” value in assay [3] (Puncture+, Bleomycin 10 or 5, FIGS. 5 and 6) was “a large amount of type I and type III collagens was secreted”. Moreover, in assay [3] (setting [6]), the “annulus fibrosus repair (staining)” value was “completely repaired and migrated inward”; the “intervertebral space height (Safranin O-fast green and Sirius red staining)” value is given as “significantly higher”; the “type I collagen secreted to fill the intervertebral space (staining)” value was “large amounts of type I collagen were secreted”. Moreover, in assay [4], the “fibrosis (atomic force analysis)” value is “faster fibrosis”, the “intervertebral space height (atomic force analysis)” value is “preservation of the intervertebral space height” and the “resistance of the disc to deformation (atomic force analysis)” value is listed as “increase in the resistance of the disc to deformation”.
